# Measured values as given in patent US5912164A, “Stereoselective hydrolysis of chiral carboxylic acid esters using esterase from ophiostoma or ceratocystis” (Laboratorios Menarini S.A., priority 1993, dated 1999).
# Legend:
# [1] = tested on: AJ3 crude enzyme solution (esterase); assay: Hydrolysis of racemic ketoprofen esters in 2-phase biotransformations; format: biochemical, Ophiostoma novo-ulmi; conditions: ester 20 g/l in cyclohexane, 24 hours, 25° C.
# Procedure: Various esters of racemic ketoprofen were dissolved in cyclohexane to a concentration of 20 g/l. The esters used were methyl, ethyl, n-propyl, n-butyl, n-pentyl, n-hexyl. In the case of methyl ester, a suspension was prepared due to low solubility of ester in cyclohexane.
# To 5 ml aliquots of crude enzyme solution in glass vials was added 2 ml of each of the six racemic ketoprofen ester solutions above. […] Reactions were conducted with shaking for 24 hours at 25° C.
# [2] = tested on: cloned AJ3 esterase in recombinant E. coli CS62 lysate; assay: Hydrolysis of racemic butyrate ester of 2-methoxycyclohexanol by lysate of CS62; format: biochemical, Ophiostoma novo-ulmi; conditions: 41 hours, 25° C., pH 8.0
# Procedure: Cells (grown as per Example 7) were resuspended at 5% w/v in 100 mM TRIS, pH 8, and lysed by sonication for 15 minutes (10 seconds on, 10 seconds off cycle) at an amplitude of 20 μm in a Soniprep 150. The lysate was centrifuged to remove cell debris and the supernatant used in biotransformation.
# 10 g of the racemic butyrate ester of 2-methoxycyclo-hexanol was mixed with 100 ml of 100 mm TRIS, pH 8, by magnetic stirring. 20 ml of the above lysate of CS62 was added. The temperature of the biotransformation was controlled at 25° C. and the pH at 8.0 by the addition of 1M NaOH. Samples were removed and monitored for 2-methoxycyclohexanol formation. NaCl was added to saturation to 1 ml sample which was then extracted into 1 ×5 volumes of toluene. The toluene layer was removed and dried by the addition of MgSO4. The sample was then analysed by GC. A 15 m DB-5 column with 0.25 μm film was used with helium as the carrier, at 55.2 kPa, the oven temperature was 60° C. for 1 minute, raised at 10° C./min to 150° C., and this temperature was then held for a further minute.
# The ee of the 2-methoxycyclohexanol formed was determined following derivatisation with trifluoroacetic anhydride (TFAA). 20 μl of TFAA was added to 1 ml of the toluene-extracted sample which was then allowed to stand at ambient temperature for 30 minutes. […]
# [3] = tested on: Cells of AJ3; assay: Whole-broth biotransformation of racemic ethyl ketoprofen by growing cells of AJ3; format: cell-based, Ophiostoma novo-ulmi; conditions: 20 g/l ester in broth, 120 hours
# Procedure: This was shaken for 30 hours at 23° C. and then 2.5 ml transferred into a second 250 ml baffled flask containing 30 ml of the same medium as in Example 1. Following growth for 40 hours, at 23° C. with shaking, racemic ethyl ketoprofen was added to the broth to a concentration of 20 g/l.
# [4] = tested on: esterase of AJ3 (Ophiostoma novo-ulmi), crude enzyme solution; assay: Hydrolysis of racemic ethyl naproxen in cyclohexane by crude enzyme lysate of AJ3; format: biochemical; conditions: 72 hours, 23° C.
# Procedure: This culture was grown with shaking at 30° C. for 48 hours. 10 ml was then transferred into 90 ml fresh medium in a 1 liter shake flask and grown for a further 8 hours at 30° C. with shaking. This flask was used to inoculate a 2.8 1 laboratory fermenter with 1.5 1 medium plus 5 g/l glucose and 0.5 ml/l of a silicone/PPG-based antifoam (XF0371, Ivanhoe Chemicals, Ill., U.S.A.). This fermenter was operated for 48 hours with agitation and aeration, controlled to maintain a DOT >50% air saturation and temperature and pH at 30° C. and 6.0 respectively.
# At the completion of the fermentation the cells were harvested by centrifugation and the pellet resuspended at 10% w/v (based on wet cell weight) in lysis buffer, i.e. 0.1M sodium carbonate in 5% Triton X-100 aqueous solution. Lysis was carried out overnight at 8° C. with shaking after which the enzyme activity-containing lysate was separated from the cell debris by centrifugation. The lysate was then diluted 50% in lysis buffer, prior to its being used to carry out resolution.
# Racemic ethyl naproxen (ethyl 6-methoxy-α-methyl-2-naphthaleneacetate) was dissolved in cyclohexane to a concentration of 19 mg/ml. 2 ml of this solution was then mixed with 5 ml of prepared crude enzyme solution in a glass vial and reacted with shaking for 72 hours at 23° C.
# [5] = tested on: cloned AJ3 esterase in recombinant E. coli CS62 lysate; assay: Hydrolysis of racemic ethyl naproxen by cell-free lysate of recombinant strain CS62; format: biochemical, Ophiostoma novo-ulmi; conditions: 1 hour, 25° C.
# Procedure: Cells of CS62 grown and stored as described above were used to provide enzyme for use in the hydrolysis of ethyl naproxen. Cells were resuspended at 10% w/v in 0.1M sodium carbonate, pH 10, and lysed by sonication for 10 minutes (10 seconds on, 10 seconds off cycles) at 4° C. The enzyme lysate was then centrifuged to obtain a cell-free supernatant solution.
# Racemic ethyl naproxen was dissolved in cyclohexane to a concentration of 100 g/l. 200 μl of this solution was added to 1 ml enzyme solution and shaken for 1 hour at 25° C. The phases were then separated and the aqueous phase analysed (by reverse phase HPLC) for naproxen accumulation.
# [6] = Screen of 12 commercially-available lipase/esterase preparations on the butyrate ester; format: biochemical; conditions: racemic butyrate ester of 2-methoxycyclohexanol as substrate
# Excerpt: The stereo-specific activity of this biocatalyst is considered unusual. […] This is potentially advantageous in that it enables access to the (S)-enantiomer as the alcohol without having to exceed 50% conversion.
molecule,measurement,setting,value
COC(=O)C(C)c1cccc(C(=O)c2ccccc2)c1 (racemic) [METHYL],ACID PRODUCED,[1],1.7 mg/mL
same,CONVERSION,[1],42.3%
same,EE (%)(S)-enantiomer,[1],90%
CCCC(=O)OC1CCCCC1OC (racemic) [butyrate ester of 2-methoxycyclo-hexanol],conversion of the substrate,[2],44%
same,ee of the 2-methoxycyclohexanol in favour of the (S)-enantiomer,[2],96%
CCCCOC(=O)C(C)c1cccc(C(=O)c2ccccc2)c1 (racemic) [n-BUTYL],ACID PRODUCED,[1],0.3 mg/mL
same,CONVERSION,[1],8.0%
CCCOC(=O)C(C)c1cccc(C(=O)c2ccccc2)c1 (racemic) [n-PROPYL],ACID PRODUCED,[1],1.0 mg/mL
same,CONVERSION,[1],25.6%
same,EE (%)(S)-enantiomer,[1],86%
CCOC(=O)C(C)c1cccc(C(=O)c2ccccc2)c1 (racemic) [ethyl ketoprofen],"enantiomeric excess of ketoprofen acid formed, in favour of the (S)-enantiomer",[3],96%
same,hydrolysis of the added ester,[3]; HPLC,18.2%
"CCOC(=O)C(C)c1ccc2cc(OC)ccc2c1 (racemic) [ethyl naproxen, ethyl 6-methoxy-α-methyl-2-naphthaleneacetate]","enantiomeric purity of naproxen, (S) enantiomer (equivalent to the ee)",[4],96.5%
same,ee (enantiomeric excess) of naproxen in favour of the (S) enantiomer,[4]; HPLC,93%
same,CONVERSION,[4]; cyclohexane 2-phase,about 40%
same,accumulation of naproxen in aqueous phase,"[4]; ester 19 mg/ml in cyclohexane, 2 ml + 5 ml crude enzyme",2.76 mg/mL
same,CONVERSION,[5],about 26%
same,ee in favour of the S-enantiomer,[5],> 95%
same,naproxen accumulated in aqueous phase,"[5]; ester 100 g/l in cyclohexane, 200 μl + 1 ml enzyme",5.3 g/L
CCCCCCOC(=O)C(C)c1cccc(C(=O)c2ccccc2)c1 (racemic) [n-HEXYL],ACID PRODUCED,[1],0.09 mg/mL
same,CONVERSION,[1],2.3%
CCCCCOC(=O)C(C)c1cccc(C(=O)c2ccccc2)c1 (racemic) [n-PENTYL],ACID PRODUCED,[1],0.18 mg/mL
same,CONVERSION,[1],4.4%
"porcine pancreatic lipase: commercially-available lipase/esterase preparation (protein, UniProt P00591 1-450, looked up) Pancreatic triacylglycerol …: SEVCFPRLGCFSDDAPWAGIVQRPLKILPWSPKDVDTRFLLYTNQNQNNYQELVADPSTITNSNFRMDRKTRFIIHGFIDKGEEDWLSNICKNLFKVESVNCICVDWKGGSRTGYTQASQNIRIVGAEVAYFVEVLKSSLGYSPSNVHVIGHSLGSHAAGEAGRRTNGTIERITGLDPAEPCFQGTPELVRLDPSDAKFVDVIHTDAAPIIPNLGFGMSQTVGHLDFFPNGGKQMPGCQKNILSQIVDIDGIWEGTRDFVACNHLRSYKYYADSILNPDGFAGFPCDSYNVFTANKCFPCPSEGCPQMGHYADRFPGKTNGVSQVFYLNTGDASNFARWRYKVSVTLSGKKVTGHILVSLFGNEGNSRQYEIYKGTLQPDNTHSDEFDSDVEVGDLQKVKFIWYNNNVINPTLPRVGASKITVERNDGKVYDFCSQETVREEVLLTLNPC",stereo-specificity of hydrolysis,[6],specificity for the (R)-enantiomer
